Assay results published in patent US10080756B2, “Combination methods for treating cancers” (Gilead Sciences, Inc., priority 2014, dated 2018).

Tests used:
[1] = test system: SU-DHL-4; test: Cell Titer Glo viability assay, SU-DHL-4; format: cell-based; settings: Homo sapiens; SU-DHL-4, DLBCL; single agent; 72 hours; read-out: Inhibition of Viability, EC50
Method: (§1) All procedures were performed at Gilead Sciences, Inc. in Branford, The compound of formula (I), cyclophosphamide, doxorubicin and vincristine sulfate were dissolved in DMSO to prepare stock solutions that were serially diluted three-fold in DMSO in a 96 well plate format at 1000× so the final starting assay concentrations tested would be 10 μM, 200 μM, 10 μM, and 1 μM respectively, for each compound. Compound plates were diluted 1:100 in RPMI without serum or additives creating a 10× stock. Cells were seeded into a 96-well plate at 10,000-20,000 cells per well in 100 μl of growth media appropriate to the cell line supplemented with 100 U/L penicillin-streptomycin. OCI-Ly3, OCI-Ly4 and OCI-Ly7 were grown in Iscove's+20% FBS, OCI-Ly19 was grown in alphaMEM+20% FBS, and all other cell lines were grown in RPMI+10% FBS. To each well, 11 μl of 10× compound was added in a final concentration of 0.1% DMSO and cells were incubated at 37° C. in 5% CO2 for 72 hours. Cell viability was assessed with Cell Titer Glo (Promega, Madison, Wis.) following the manufacturer's protocol on an Envision plate reader (Perkin Elmer, Waltham, Mass.). EC50 values were determined using a four parameter variable slope model with GraphPad Prism 6.0 software. All EC50 values represent mean values of from duplicate dose response curves.

[2] = test system: Pfeiffer; test: Cell Titer Glo viability assay, Pfeiffer; format: cell-based; settings: Homo sapiens, DLBCL, single agent, 72 hours, read-out: Inhibition of Viability, EC50
Method: as §1

[3] = test system: SU-DHL-10; test: Cell Titer Glo viability assay, SU-DHL-10; format: cell-based; settings: Homo sapiens, SU-DHL10; SU-DHL-10, DLBCL; single agent; 72 hours; read-out: Inhibition of Viability, EC50
Method: as §1

[4] = test system: OCI-LY7; test: Cell Titer Glo viability assay, OCI-LY7; format: cell-based; settings: Homo sapiens; OCI-LY7, DLBCL; single agent; 72 hours; read-out: Inhibition of Viability, EC50
Method: as §1

[5] = test system: RPMI-8266; test: Cell Titer Glo viability assay, RPMI-8266; format: cell-based; settings: RPMI8266; RPMI-8266, MM; single agent; 72 hours; read-out: Inhibition of Viability, EC50
Method: as §1

[6] = test system: KMS-11; test: Cell Titer Glo viability assay, KMS-11; format: cell-based; settings: Homo sapiens; KMS-11, MM; single agent; 72 hours; read-out: Inhibition of Viability, EC50
Method: as §1

[7] = test system: SU-DHL-10; test: SU-DHL-10 mouse xenograft model of diffuse large B cell lymphoma, tumor growth; format: in vivo; settings: for complete or partial regressions (in words): single agents; for partial tumor regressions: treatment alone
Method: Entospletinib was evaluated for efficacy in vivo as a single agent and in combination with vincristine in a subcutaneous cell line tumor xenograft model in male SCID beige mice using the human diffuse large B-cell lymphoma cell line, SU-DHL-10 in a 2×2 dose level matrix of Entospletinib and vincristine.
Formulation—Entospletinib was formulated in a complete vehicle of 0.5% HPMC-0.2% Tween 80 (pH 3.5 50 mM acetate buffer, and the lower dose was prepared by direct dilution). The high dose formulation was mixed using a stir bar (and Polytroned briefly as needed to break up clumps of compound) to form a yellow solution (pH=1.8), which became an opaque suspension within 30 minutes. The dosing suspension was prepared fresh daily and stored at 4° C. protected from light between treatments.
The formulation for the highest dose group of vincristine was prepared by diluting the stock solution with 0.9% sterile saline, and the lower dose was prepared by direct dilution of that stock with saline. […] The dosing formulations were prepared just prior to each treatment.
Male Harlan SCID beige mice (C.B-17/IcrHsd-Prkdc^scidLyst^bg-J) were used in this study. They were 6-7 weeks old on Day 1 of the experiment and were fed irradiated Harlan 2918.15 Rodent Diet and water ad libitum. Animals were housed in static cages with Bed-O'Cobs™ bedding (The Andersons Lab Bedding Products) inside Biobubble® Clean Rooms that provide H.E.P.A filtered air into the bubble environment at 100 complete air changes per hour. All treatments, body weight determinations, and tumor measurements were carried out in the bubble environment. The environment was controlled to a temperature range of 70°±2° F. and a humidity range of 30-70%.
SU-DHL-10 cells were obtained from Leibniz Institute DSMZ-German Collection of Microorganisms and Cell Cultures (DSMZ). They were grown in RPMI 1640 medium which was modified with 1% 100 mM Na pyruvate, 1% 1M HEPES buffer, 1% of a 45% glucose solution and supplemented with 10% non-heat-inactivated Fetal Bovine Serum (FBS) and 1% 100× Penicillin/Streptomycin/L-Glutamine (PSG). The growth environment was maintained in an incubator with a 5% CO2 atmosphere at 37° C. The cells were centrifuged at 200 rcf for 8 minutes at 8° C., the supernatant aspirated, and the pellet re-suspended in cold Dulbecco's Phosphate Buffered Saline (DPBS) by pipetting. An aliquot of the homogeneous cell suspension was diluted with a trypan blue solution and counted using a Luna automated cell counter. The pre-implantation cell viability was 91%. The cell suspension was centrifuged at 200 rcf for 8 minutes at 8° C. The supernatant was aspirated and the cell pellet was re-suspended in cold 50% serum-free medium:50% Matrigel® Matrix (Corning) to generate a final concentration of 2.5E+07 cells/ml. The cell suspension was maintained on wet ice during implantation. Following implantation, an aliquot of the remaining cells was diluted with a trypan blue solution and counted to determine the post-implantation cell viability (91%). Test animals were implanted subcutaneously, high in the axilla (just under the fore limb) on Day 0 with 5.0×10^6 cells in 0.2 ml of 50% serum-free medium: 50% Matrigel® Matrix using a 27-gauge needle and syringe.
All mice were sorted into study groups based on tumor burden (estimated from caliper measurements). Efficacy was evaluated by tumor volume/weight monitored during and after treatment. Tumor burden (mg) was measured three times weekly by using caliper measurements and converting to tumor mass by the formula for the volume of a prolate ellipsoid assuming unit density as: Tumor burden (mg)=(L×W^2)/2 • where L and W are the respective orthogonal tumor length and width measurements (mm). The criteria used for a successful distribution in this study was a mean tumor burden for all groups within 10% of the overall mean tumor burden for the study population Treatment began on Day 16 at an overall mean tumor burden of 197 mm^3. […]

[8] = test system: MM1.S; test: Cell Titer Glo viability assay, MM1.S; format: cell-based; settings: Homo sapiens, MM, single agent, 72 hours, read-out: Inhibition of Viability, EC50
Method: as §1

[9] = test system: OPM-2; test: Cell Titer Glo viability assay, OPM-2; format: cell-based; settings: Homo sapiens; OPM-2, MM; single agent; 72 hours; read-out: Inhibition of Viability, EC50
Method: as §1

With `c1cn2cc(-c3ccc4cn[nH]c4c3)nc(Nc3ccc(N4CCOCC4)cc3)c2n1` [Compound of Formula I, 6-(1H-indazol-6-yl)-N-(4-morpholinophenyl)imidazo[1,2-a]pyrazin-8-amine] the EC50 [1] was over 3000 nM, the EC50 [2] was over 3000 nM and the EC50 [3] was over 3000 nM. It also gave an EC50 [4] of over 3000 nM, an EC50 [5] of over 3000 nM and an EC50 [6] of over 3000 nM. For the same molecule, the “Day 31 % Tumor Growth Inhibition” value ([7]; ENTO 25 mg/kg BID + Vehicle for VCR Q7Dx3 (group 3)) was 20%, the “Day 31 % Tumor Growth Inhibition” value ([7]; ENTO 75/50 mg/kg BID + Vehicle for VCR Q7Dx3 (group 2)) was 39% and the “inhibition of tumor growth (in words)” value ([7]; Entospletinib dosed alone at 25 or 75/50 mg/kg) was “inhibited tumor growth but to a lesser degree than that seen with vincristine”. For the same molecule, the “complete or partial regressions (in words)” value [7] was “no complete or partial regressions”, the partial tumor regressions [7] was 0% and the EC50 [8] was over 3000 nM. It also gave an EC50 [9] of over 3000 nM.
Work on `CC[C@]1(O)C[C@H]2CN(CCc3c([nH]c4ccccc34)[C@@](C(=O)OC)(c3cc4c(cc3OC)N(C=O)[C@H]3[C@@](O)(C(=O)OC)[C@H](OC(C)=O)[C@]5(CC)C=CCN6CC[C@]43[C@@H]65)C2)C1` [Vincristine, vincristine] yielded an EC50 [1] of 75 nM, an EC50 [2] of 4 nM and an EC50 [3] of 45 nM. The EC50 [4] was 4.6 nM, the EC50 [5] was 67 nM and the EC50 [6] was 103 nM. The “Day 31 % Tumor Growth Inhibition” value ([7]; Vehicle for ENTO + VCR 0.15 mg/kg Q7Dx3 (group 5)) was 42%, the “Day 31 % Tumor Growth Inhibition” value ([7]; Vehicle for ENTO + VCR 0.5 mg/kg Q7Dx3 (group 4)) was 85% and the “complete or partial regressions (in words)” value [7] was “no complete or partial regressions”. The partial tumor regressions [7] was 0%, the “inhibition of tumor growth (in words)” value ([7]; vincristine at both 0.15 and 0.5 mg/kg) was “significant inhibition of tumor growth” and the EC50 [8] was 59 nM. For the same molecule, the EC50 [9] was 97 nM.
